Measurements from patent US20250017938A1, “COMBINATION THERAPIES OF FASN INHIBITORS WITH THYROID HORMONE RECEPTOR AGONISTS” (Sagimet Biosciences Inc., priority 2023, published 2025).
Entries after “also recorded” stand apart in the source; their conditions may differ.

Legend:
Format in all cases: cell-based
[1] = test system: 3D InSight Human Liver Microtissues (NASH condition); assay: 3D InSight Liver NASH model, intratissue triglyceride content (10 days)
Experimental: […]. InSphero's 10-day NASH treatment scheme was applied with compound dosing at days 0, 3, 5 and 7 of treatment. […]. At day 5 of treatment, secreted cytokine levels were measured (LUMINEX™), at days 7 and 10 released procollagen 1 was quantified and at day 10 of treatment intratissue triglyceride content was determined. The release of lactate dehydrogenase (LDH) into culture supernatant was measured at days 3, 5, 7 and 10, in order to detect possible cytotoxicity caused by the treatments. After first data evaluation, released procollagen 3 was measured in supernatants of selected day 10 samples. […]
Cells were dosed on days 0, 3, 5 and […]. Experimental readout measurements comprised collection and freezing of supernatants for LDH measurement on days 3, 5, 7 and 10. Measurement of LDH released into supernatant was analyzed using an LDH-Glo™ Cytotoxicity
Assay (Promega). Measurement of intratissue triglyceride (TG) content after 10 days of treatment was analyzed using a Triglyceride-Glo™ Assay (Promega). […] Measurement of IL-6, IL-8, IP-10, MCP-1, MIP-1α and TNF-α content was analyzed using Magnetic Luminex® Performance Assay, Human XL Cytokine Discovery Base Kit (R&D systems).
. Total TG content in MTs at day 10 of treatment was measured with Triglyceride-Glo™ Assay (Promega), according to InSphero AG protocol. […]

[2] = test system: human precision cut liver slices; assay: Precision cut liver slice (PCLS) in vitro human NASH model, soluble outputs (collagen 1α1, IL-6, TIMP-1 ELISA)
Experimental: PCLSs were prepared from resected liver tissue and rested for 24 hours to allow the post-slicing stress period to elapse before experiments began. […] PCLS culture media, including lipids and compounds, was refreshed at 24 hrs intervals. […] PCLSs were prepared from an n=1 individual human liver. The human livers are normal margins of near-to-normal human liver obtained during a surgical resection. Tissue culture supernatant (n=3 or n=4 per group) were collected every 24 hrs and snap frozen for quantification of the soluble outputs described below. At harvest, n=2 PCLSs were harvested for a triglyceride assay, n=2 PCLSs were harvested for frozen sections (Oil Red O staining), n=2 PCLSs were formalin-fixed, paraffin embedded (FFPE) for immunohistochemistry, and n=2 PCLSs were snap frozen for RNA isolation (Table 4, Groups 1˜4 only).

[3] = test system: 3D InSight Human Liver Microtissues; assay: 3D InSight Human Liver Microtissues, DNL condition, intratissue triglyceride content (7 days)
Experimental: After a 7 day treatment with dosings at days 0, 2 and 5, intratissue lipid accumulation was measured using Triglyceride-Glo™ Assay (Promega). In addition, metabolic activity of the treated Liver Microtissues (MTs) and cytotoxicity were assessed by measurement of ATP content at day 7 of treatment (CellTiter-Glo® 2.0 Cell Viability Assay, Promega) and LDH release between days 0-2, days 2-5 and days 5-7 (LDH-Glo™ Cytotoxicity Assay, Promega), respectively. Leftover supernatant collected on treatment days 2, 5 and 7 were stored frozen for further analysis. […] Experimental readout measurements comprised collection and freezing of supernatants for LDH measurement on days 2, 5 and 7. Measurement of LDH released into supernatant was analyzed using an LDH-Glo™ Cytotoxicity Assay (Promega). Measurement of ATP content in single MTs after 7 days of treatment with was analyzed using a Cell Titer Glo™ 2.0 Cell Viability Assay (Promega). Measurement of intratissue triglyceride (TG) content after 7 days of treatment was analyzed using a Triglyceride-Glo™ Assay (Promega). […] Total TG content in MTs at day 7 of treatment was measured with Triglyceride-Glo™ Assay (Promega), according to InSphero AG protocol. The amount of glycerol/MT [pmol/MT] was calculated using linear regression to a standard curve. […]

[4] = test system: primary isolated human stellate cells (HSC); assay: Primary human hepatic stellate cells stimulated with TGF-β1, total collagen (in vitro fibrosis study)
Experimental: Primary isolated human stellate cells (HSC) were investigated in the study. The cells were maintained under standard culture conditions and in established culture medium.
Study Model: Viability screening and in vitro fibrosis study, 24 well plate format, 4 day stimulation with recombinant human TGF-β1. In this study, 2.5 and 10 ng/ml TGF-β1 were used.
Primary HSCs were seeded on t=day-1 and cultured in 24 well plates for 24 hours. […] Cells were incubated for an additional 96 hours (t=day 4). Conditioned medium samples were collected for expression analysis of secreted proteins. All wells were used for an alamarBlue assay to assess cell viability/metabolic activity. A separate plate was used at t=day 0 as reference for the alamarBlue assay. Next, the cell-matrix fraction was collected for measurement of total collagen and cell protein levels.
Both test compounds were dissolved in DMSO. Working concentrations were prepared from a stock concentration that is 1000-fold that of the highest working concentration. All controls were incubated with the same DMSO concentration as that present in the highest working concentration.
Total Collagen assay was performed according to the manufacturer's protocol.
Total Protein assay, for use with the Total Collagen assay, was performed according to the manufacturer's protocol. Protein levels were used to correct for differences in cell contents between samples.
Significance of differences between the groups was calculated either parametrically or non-parametrically, using the computer program SPSS. For nonparametric calculations, a Kruskal-Wallis test for several independent samples was used, followed by a Mann-Whitney U-test for independent samples. For parametric calculations, a One-way ANOVA for multiple comparisons was used, followed by Dunnett or Bonferroni's correction.

Cc1nc(-c2cc(C(=O)N3CCC(c4ccc(C#N)cc4)CC3)c(C)cc2C2CCC2)n[nH]1 [Compound 001-152, 4-(1-(4-Cyclobutyl-2-methyl-5-(5-methyl-4H-1,2,4-triazol-3-yl)benzoyl)piperidin-4-yl)benzonitrile]
intratissue Triglyceride content (NASH-induced) [1]: reduced cellular triglycerides | fibrosis marker collagen 1α1 in culture supernatant [2]: dose and time-dependent decrease | intratissue Triglyceride content [3]: reduces cellular triglycerides | collagen production [4]: inhibits collagen production directly; also recorded: inhibits as effectively as positive control Alk5 inhibitor
